Literature values as cited in patent US8545863B2, “Insecticides for agricultural and horticultural crops” (Globachem, priority 2009, dated 2013).

System: apple scab (V. inequalis)

Row | SMILES | decreasing fruit and leaf scab (apple scab) | concentration preventing germination of spores and killing the spore sacks (asci) (apple scab (V. inequalis)) [g/L]
1 | O=C([O-])O.[K+] [Potassium bicarbonate, potassium bicarbonate] | effective | 
2 | [Ca+2].[OH-].[OH-] [calcium hydroxide] |  | 4.3
